Source: patent publication US20080207522A1, “Antimicrobial Peptides” (priority 2004, published 2008)
Ends that are not written are not given here.

What was measured:
Candida albicans = tested on: Candida albicans
Experimental: (§1) Minimal inhibitory concentration (MIC) determination. The MICs of the peptides were measured using a modified broth microdilution method in Mueller Hinton (MH) medium. Wu et al., J. Biol. Chem. 274: 29-35, 1999. Briefly, the peptides were dissolved and stored in glass vials. The assay was performed in sterile 96-well polypropylene microtitre plates were used. Serial dilutions of the peptides to be assayed were performed in 0.01% acetic acid (Fisher) containing 0.2% bovine serum albumin (Boehringer Mannheim GmbH) at 10× the desired final concentration. Ten microlitres of the 10× peptides were added to each well of a 96-well polypropylene plate containing 90 μl of MH media per well. Bacteria were added to the plate from an overnight culture at 2-7×10^5 colony forming units/ml and incubated over night at 37° C. The MIC was taken as the concentration at which no growth was observed.
(§2) Strains. For the killing assay a mini-Tn5-lux mutant in Pseudomonas aeruginosa H103 was used. The strain is called H1001 and contains a fliC::luxCDABE transcriptional fusion resulting in constitutive expression of luciferase. The bacterial strains used for the antimicrobial activity assays included Escherichia coli UB1005 (F-, nalA37, metB1), a wild-type Salmonella enterica ssp. Typhimurium (S. Typhimurium), wild-type Pseudomonas aeruginosa PAO1 strain H103, Enterococcus faecalis ATCC29212, Staphylococcus aureus ATCC25923, and a clinical isolate of Staphylococcus epidermidis obtained from Dr. D. Speert (Department of Medicine, University of British Columbia). Antifungal activity was tested using a lab isolate of Candida albicans obtained from Dr. B. Dill (Department of Microbiology and Immunology, University of British Columbia).
(§3) In addition, the parent peptide Bac2A was included in these studies as a standard. The minimal inhibitory concentrations (MIC) were determined for the important medical pathogens Pseudomonas aeruginosa, Escherichia coli, Salmonella typhimurium, Staphylococcus aureus, Staphylococcus epidermidis, Enterococcus faecaelis, and the yeast Candida albicans in Mueller-Hinton media.

[1] = tested on: Enterococcus faecalis ATCC29212; conditions: ATCC29212
Experimental: as §1, §2, §3

[2] = tested on: Pseudomonas aeruginosa PAO1 strain H103; conditions: PAO1
Experimental: as §1, §2, §3

[3] = tested on: Salmonella enterica ssp. Typhimurium; conditions: ssp. Typhimurium
Experimental: as §1, §2, §3

[4] = tested on: Staphylococcus aureus ATCC25923; conditions: ATCC25923
Experimental: as §1, §2, §3

[5] = tested on: Staphylococcus epidermidis
Experimental: as §1, §2, §3

[6] = tested on: Pseudomonas aeruginosa strain H1001; assay: Assay for the cleaved (free, soluble) peptides from cellulose support, luminescence killing assay; assay type: cell-based; design: key: 1: Peptides showing stronger killing than Bac2A at a 4 to 8-fold higher dilution; Peptides showing stronger killing compared to that of Bac2A at a 4-fold higher dilution; 3: Peptides similar to Bac2A; 4: Peptides similar to Bac2A at the highest concentration but demonstrating weaker killing at a 2-fold dilution; 5: Peptides giving very weak or no killing at a 2-fold dilution; 6: Peptides with weak killing activity at the highest concentration; conditions: free (cleaved) peptides, killing relative to Bac2A
Summary of the method: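 Cellulose-synthesized peptides (amidated C-terminus, two β-alanines) cleaved by ammonia, released from punched spots 30 min at 37 °C, then serially diluted. P. aeruginosa H1001 (constitutive fliC::luxCDABE) overnight culture diluted 1:500 in LB or 100 mM Tris pH 7.3/20 mM glucose. Killing followed as time-dependent luminescence loss at 37 °C.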

[7] = tested on: Pseudomonas aeruginosa strain H1001 fliC::luxCDABE; assay: Luminescence-based assay for the non-cleaved (bound) peptides on cellulose membranes; assay type: cell-based; conditions: for Luminescence at the given time in minutes: 0 / Luminescence at the given time in minutes: 20 / Luminescence at the given time in minutes: 40 / Luminescence at the given time in minutes: 60 / Luminescence at the given time in minutes: 80 / Luminescence at the given time in minutes: 100 / Luminescence at the given time in minutes: 120 / Luminescence at the given time in minutes: 180 / Luminescence at the given time in minutes: 240: cellulose-bound peptide; for Luminescence at the given time in minutes: 0: 0 min; for Luminescence at the given time in minutes: 20: 20 min; for Luminescence at the given time in minutes: 40: 40 min; for Luminescence at the given time in minutes: 60: 60 min; for Luminescence at the given time in minutes: 80: 80 min; for Luminescence at the given time in minutes: 100: 100 min; for Luminescence at the given time in minutes: 120: 120 min; for Luminescence at the given time in minutes: 180: 180 min; for Luminescence at the given time in minutes: 240: 240 min; for Activity Class bound: uncleaved cellulose-bound peptides
Summary of the method: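 Peptides remained bound to cellulose spots, which were ethanol-washed and equilibrated in 100 mM Tris pH 7.3. Constitutively lux-expressing P. aeruginosa (OD600 0.35 culture diluted 1:25) added in 10 mM Tris-HCl pH 7.3, 20 mM glucose at 37° C. Luminescence (RLU) followed over 14 time points; peptides binned into six activity classes.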

RLARIVVIRVAG-NH2 (C-terminus assumed) [Bac415]
MIC C. albicans (Candida albicans): 63 µg/mL | MIC E. faecalis [1]: 31 µg/mL | MIC P. aerug [2]: 63 µg/mL | MIC S. Typhim. [3]: 63 µg/mL | MIC S. aureus [4]: 63 µg/mL | MIC S. epi. [5]: 31 µg/mL

RLARQVVIRVAR-NH2 (C-terminus assumed) [Bac289]
MIC C. albicans (Candida albicans): 8 µg/mL | MIC E. faecalis [1]: 4 µg/mL | MIC P. aerug [2]: 16 µg/mL | MIC S. Typhim. [3]: 8 µg/mL | MIC S. aureus [4]: 8 µg/mL | MIC S. epi. [5]: 2 µg/mL

RLARRVVIRVAR-NH2 (C-terminus assumed) [Bac290]
MIC C. albicans (Candida albicans): 125 µg/mL | MIC E. faecalis [1]: 125 µg/mL | MIC P. aerug [2]: 63 µg/mL | MIC S. Typhim. [3]: 31 µg/mL | MIC S. aureus [4]: 63 µg/mL | MIC S. epi. [5]: 16 µg/mL

RLRRIVVIRVAR-NH2 (C-terminus assumed) [Bac252]
MIC C. albicans (Candida albicans): 16 µg/mL | MIC E. faecalis [1]: 8 µg/mL | MIC P. aerug [2]: 8 µg/mL | MIC S. Typhim. [3]: 8 µg/mL | MIC S. aureus [4]: 8 µg/mL | MIC S. epi. [5]: 2 µg/mL

RLRRIVVIRVRR-NH2 (C-terminus assumed) [Bac433]
MIC C. albicans (Candida albicans): 31 µg/mL | MIC E. faecalis [1]: 4 µg/mL | MIC P. aerug [2]: 8 µg/mL | MIC S. Typhim. [3]: 8 µg/mL | MIC S. aureus [4]: 8 µg/mL | MIC S. epi. [5]: 2 µg/mL

RVLIVIRARRVA-NH2 (C-terminus assumed) [Bac043]
Activity Class Soluble [6]: 1 | Luminescence at the given time in minutes: 0 [7]: 5254 RLU | Luminescence at the given time in minutes: 20 [7]: 6385 RLU | Luminescence at the given time in minutes: 40 [7]: 3722 RLU | Luminescence at the given time in minutes: 60 [7]: 1189 RLU | Luminescence at the given time in minutes: 80 [7]: 313 RLU | Luminescence at the given time in minutes: 100 [7]: 159 RLU | Luminescence at the given time in minutes: 120 [7]: 67 RLU | Luminescence at the given time in minutes: 180 [7]: 84 RLU | Luminescence at the given time in minutes: 240 [7]: 52 RLU | Activity Class bound [7]: 3 (Peptides similar to Bac2A resulting in lux values of less than 500 after 240 min.) | MIC P. aeruginosa [2]: 40 µg/mL | MIC S. aureus [4]: 23 µg/mL

VLIRIRRVARAV [Bac008]
Activity Class Soluble [6]: 2 | Luminescence at the given time in minutes: 0 [7]: 3718 RLU | Luminescence at the given time in minutes: 20 [7]: 6695 RLU | Luminescence at the given time in minutes: 40 [7]: 5154 RLU | Luminescence at the given time in minutes: 60 [7]: 4426 RLU | Luminescence at the given time in minutes: 80 [7]: 3671 RLU | Luminescence at the given time in minutes: 100 [7]: 3164 RLU | Luminescence at the given time in minutes: 120 [7]: 2786 RLU | Luminescence at the given time in minutes: 180 [7]: 2703 RLU | Luminescence at the given time in minutes: 240 [7]: 2890 RLU | Activity Class bound [7]: 5 (Peptides reducing luminescence (lux) values to between 1500 to 3000 after 240 min.)

VRIRARRVILVA-NH2 (C-terminus assumed) [Bac006]
Activity Class Soluble [6]: 1 | Luminescence at the given time in minutes: 0 [7]: 3878 RLU | Luminescence at the given time in minutes: 20 [7]: 6829 RLU | Luminescence at the given time in minutes: 40 [7]: 4619 RLU | Luminescence at the given time in minutes: 60 [7]: 2393 RLU | Luminescence at the given time in minutes: 80 [7]: 867 RLU | Luminescence at the given time in minutes: 100 [7]: 469 RLU | Luminescence at the given time in minutes: 120 [7]: 277 RLU | Luminescence at the given time in minutes: 180 [7]: 286 RLU | Luminescence at the given time in minutes: 240 [7]: 306 RLU | Activity Class bound [7]: 3 (Peptides similar to Bac2A resulting in lux values of less than 500 after 240 min.) | MIC P. aeruginosa [2]: 28 µg/mL | MIC S. aureus [4]: 28 µg/mL

VVIRAAIRRVRL [Bac038]
Activity Class Soluble [6]: 5 | Luminescence at the given time in minutes: 0 [7]: 5024 RLU | Luminescence at the given time in minutes: 20 [7]: 7158 RLU | Luminescence at the given time in minutes: 40 [7]: 5307 RLU | Luminescence at the given time in minutes: 60 [7]: 4676 RLU | Luminescence at the given time in minutes: 80 [7]: 4112 RLU | Luminescence at the given time in minutes: 100 [7]: 3323 RLU | Luminescence at the given time in minutes: 120 [7]: 2739 RLU | Luminescence at the given time in minutes: 180 [7]: 2466 RLU | Luminescence at the given time in minutes: 240 [7]: 2576 RLU | Activity Class bound [7]: 5 (Peptides reducing luminescence (lux) values to between 1500 to 3000 after 240 min.)

VVRALRRIIARV [Bac048]
Activity Class Soluble [6]: 4 | Luminescence at the given time in minutes: 0 [7]: 5001 RLU | Luminescence at the given time in minutes: 20 [7]: 6505 RLU | Luminescence at the given time in minutes: 40 [7]: 5163 RLU | Luminescence at the given time in minutes: 60 [7]: 4406 RLU | Luminescence at the given time in minutes: 80 [7]: 3824 RLU | Luminescence at the given time in minutes: 100 [7]: 3470 RLU | Luminescence at the given time in minutes: 120 [7]: 3423 RLU | Luminescence at the given time in minutes: 180 [7]: 3268 RLU | Luminescence at the given time in minutes: 240 [7]: 3694 RLU | Activity Class bound [7]: 6 (Peptides having residual luminescence (lux) values greater than 3000 after 240 min.)
